Patent US8748433B2, “β3 adrenergic receptor agonists” (Merck Sharp & Dohme Corp., priority 2010, dated 2014)

target: T1, human β3 adrenergic receptor (Homo sapiens, UniProt P13945); assay: Functional assay: cAMP production in CHO cells stably transfected with cloned β3-adrenergic receptor (LANCE TR-FRET); format: cell-based; conditions: Table 1, read-out: Human β3 agonist functional activity
T1 construct: expressed in transfected cells; host or cells: CHO cells, stably transfected
Procedure: cAMP production in response to ligand is measured according to Barton, et al. (1991, Agonist-induced desensitization of D2 dopamine receptors in human Y-79 retinoblastoma cells. Mal. Pharmacol. v3229:650-658) modified as follows. cAMP production is measured using a homogenous time-resolved fluorescence resonance energy transfer immunoassay (LANCE™, Perkin Elmer) according to the manufacture's instructions. Chinese hamster ovary (CHO) cells, stably transfected with the cloned β-adrenergic receptor (β1, β2 or β3) are harvested after 3 days of subculturing. Harvesting of cells is done with Enzyme-free Dissociation. Media (Specialty Media). Cells are then counted and resuspended in assay buffer (Hank's Balanced salt solution supplemented with 5 mM HEPES, 0.1% BSA) containing a phosphodiesterase inhibitor (IBMX, 0.6 mM). The reaction is initiated by mixing 6,000 cells in 6 μL with 6 μL Alexa Fluor labeled cAMP antibody (LANCE™ kit) which is then added to an assay well containing 12 μL of compound (diluted in assay buffer to 2× final concentration). The reaction proceeds for 30 min at room temperature and is terminated by the addition of 24 μL detection buffer (LANCE™ kit). The assay plate is then incubated for 1 h at room temperature and time-resolved fluorescence measured on a Perkin Elmer Envision reader or equivalent. The unknown cAMP level is determined by comparing fluorescence levels to a cAMP standard curve.
The non-selective, full agonist β-adrenergic ligand isoproterenol is used at all three receptors to determine maximal stimulation. The human β3 adrenergic receptor (AR) selective ligand (S)—N-[4-[2-[[2-hydroxy-3-(4-hydroxyphenoxy)propyl]amino]ethyl]-phenyl]-4-iodobenzenesulfonamide is used as a control in all assays. Isoproterenol is titrated at a final concentration in the assay of 10^-10 M to 10-5 and the selective ligand (S)—N-[4-[2-[[2-hydroxy-3-(4-hydroxyphenoxy)propyl]amino]ethyl]phenyl]-4-iodobenzenesulfonamide is titrated at the β3 receptor at concentration of 10^-10 M to 10^-5 M. Unknown ligands are titrated at all 3β-adrenergic receptor subtypes at a final concentration in the assay of 10^-10 M to 10^-5 M to determine the EC50. The EC50 is defined as the concentration of compound that gives 50% activation of its own maximum. Data are analyzed using Microsoft Excel and Graphpad Prism or an internally developed data analysis software package.

T1 sequence (P13945 whole entry): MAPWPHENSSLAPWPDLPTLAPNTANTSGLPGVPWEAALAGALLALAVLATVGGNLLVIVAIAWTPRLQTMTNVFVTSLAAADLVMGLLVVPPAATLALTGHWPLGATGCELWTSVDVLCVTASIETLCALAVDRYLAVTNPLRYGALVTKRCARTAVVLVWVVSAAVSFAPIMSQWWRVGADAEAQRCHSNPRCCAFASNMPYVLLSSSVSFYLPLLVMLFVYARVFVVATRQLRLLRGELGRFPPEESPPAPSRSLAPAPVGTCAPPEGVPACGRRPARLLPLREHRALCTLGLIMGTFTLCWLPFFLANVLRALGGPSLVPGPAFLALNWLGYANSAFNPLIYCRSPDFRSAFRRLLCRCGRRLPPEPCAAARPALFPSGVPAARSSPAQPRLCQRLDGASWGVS

Row | Structure (SMILES) | EC50 [nM]
1 | OC(c1ccccc1)C1CCC(Cc2ccc3nc(CCCn4cccn4)[nH]c3c2)N1 (centres unmarked) [Example 6] | 101 to 1000
2 | OC(c1ccccc1)C1CCC(Cc2ccc3nc(CCn4cnc5ccccc54)[nH]c3c2)N1 (centres unmarked) [Example 13] | 101 to 1000
3 | O[C@H](c1ccccc1)[C@H]1CC[C@@H](Cc2ccc3nc(CCn4ccnc4-c4ccccc4)[nH]c3c2)N1 [Example 10] | 101 to 1000
4 | O[C@H](c1cccnc1)[C@H]1CC[C@@H](Cc2ccc3nc(C4CCc5ccnn54)[nH]c3c2)N1 (some centres unmarked) [Example 42] | 101 to 1000
5 | Cc1nc(Cc2nc3ccc(C[C@@H]4CC[C@H]([C@H](O)c5ccccc5)N4)cc3[nH]2)cs1 [Example 8] | 101 to 1000
6 | CCc1nc2ccccc2n1CCc1nc2ccc(C[C@@H]3CC[C@H]([C@H](O)c4ccccc4)N3)cc2[nH]1 [Example 5] | 101 to 1000
7 | O=C1c2ccccc2C(=O)N1Cc1nc2ccc(C[C@@H]3CC[C@H]([C@H](O)c4cccnc4)N3)cc2[nH]1 [Example 31] | 101 to 1000
8 | Oc1cccc(-c2nc3ccc(C[C@@H]4CC[C@H]([C@H](O)c5cccnc5)N4)cc3[nH]2)n1 [Example 40] | 1000 to 3000
9 | CS(=O)(=O)c1ccc(-c2nc3ccc(C[C@@H]4CC[C@H]([C@H](O)c5cccnc5)N4)cc3[nH]2)cc1 [Example 33] | 101 to 1000
10 | Cc1cc2ncn(CCc3nc4ccc(C[C@@H]5CC[C@H]([C@H](O)c6ccccc6)N5)cc4[nH]3)c2cc1C [Example 14] | 101 to 1000
11 | Cc1nc2c(s1)CCC2c1nc2ccc(C[C@@H]3CC[C@H]([C@H](O)c4cccnc4)N3)cc2[nH]1 (some centres unmarked) [Example 29] | 101 to 1000
12 | O[C@H](c1cccnc1)[C@H]1CC[C@@H](Cc2ccc3nc(-c4c(F)cccc4F)[nH]c3c2)N1 [Example 38] | 101 to 1000
13 | Cc1nn(-c2ccccc2)c(C)c1CCc1nc2ccc(C[C@@H]3CC[C@H]([C@H](O)c4ccccc4)N3)cc2[nH]1 [Example 12] | 101 to 1000
14 | OC(c1ccccc1)C1CCC(Cc2ccc3nc(CCc4cnn(-c5ccccc5)c4)[nH]c3c2)N1 (centres unmarked) [Example 11] | 101 to 1000

Results, then the molecule that gave them:

Row | EC50 [nM] | Structure (SMILES)
15 | 11 to 100 | CS(=O)(=O)c1cccc(-c2nc3ccc(C[C@@H]4CC[C@H]([C@H](O)c5cccnc5)N4)cc3[nH]2)c1 [Example 34]
16 | 101 to 1000 | OC(c1cccnc1)C1CCC(Cc2ccc3nc(C4CCc5scnc54)[nH]c3c2)N1 (centres unmarked) [Example 26]
17 | 101 to 1000 | Cc1nc(Cc2nc3ccc(C[C@@H]4CC[C@H]([C@H](O)c5ccccc5)N4)cc3[nH]2)c(C)s1 [Example 20]
18 | 101 to 1000 | O=c1ccncn1Cc1nc2ccc(C[C@@H]3CC[C@H]([C@H](O)c4ccccc4)N3)cc2[nH]1 [Example 19]
19 | 11 to 100 | Cc1nc2c(s1)CCC2c1nc2ccc(C[C@@H]3CC[C@H]([C@H](O)c4ccccc4)N3)cc2[nH]1 (some centres unmarked) [Example 21]
20 | 101 to 1000 | O=C(O)c1cccc(-c2nc3ccc(C[C@@H]4CC[C@H]([C@H](O)c5cccnc5)N4)cc3[nH]2)c1 [Example 36]
21 | 101 to 1000 | O[C@H](c1cccnc1)[C@H]1CC[C@@H](Cc2ccc3nc(-c4ccccc4-c4ncc[nH]4)[nH]c3c2)N1 [Example 41]
22 | 11 to 100 | O[C@H](c1ccccc1)[C@H]1CC[C@@H](Cc2ccc3nc(CCn4ncc5ccccc54)[nH]c3c2)N1 [Example 7]
23 | 101 to 1000 | O=C(O)c1ccccc1-c1nc2ccc(C[C@@H]3CC[C@H]([C@H](O)c4cccnc4)N3)cc2[nH]1 [Example 35]
24 | 11 to 100 | CS(=O)(=O)c1ccccc1-c1nc2ccc(C[C@@H]3CC[C@H]([C@H](O)c4cccnc4)N3)cc2[nH]1 [Example 32]
25 | 101 to 1000 | C[C@@H](c1nc2ccc(C[C@@H]3CC[C@H]([C@H](O)c4cccnc4)N3)cc2[nH]1)n1cccnc1=O [Example 28]
26 | 101 to 1000 | CC(c1cscn1)c1nc2ccc(C[C@@H]3CC[C@H]([C@H](O)c4cccnc4)N3)cc2[nH]1 (some centres unmarked) [Example 27]
27 | 11 to 100 | O=C(O)c1ccc(-c2nc3ccc(C[C@@H]4CC[C@H]([C@H](O)c5cccnc5)N4)cc3[nH]2)cc1 [Example 37]
28 | 101 to 1000 | O[C@H](c1ccccc1)[C@H]1CC[C@@H](Cc2ccc3nc(CCn4cncn4)[nH]c3c2)N1 [Example 15]
29 | 101 to 1000 | O=C1c2ccccc2C(=O)N1Cc1nc2ccc(C[C@@H]3CC[C@H]([C@H](O)c4ccccc4)N3)cc2[nH]1 [Example 17]
30 | 11 to 100 | OC(c1cccnc1)C1CCC(Cc2ccc3nc(-c4ccccc4C(F)(F)F)[nH]c3c2)N1 (centres unmarked) [Example 39]
31 | 101 to 1000 | O[C@H](c1ccccc1)[C@H]1CC[C@@H](Cc2ccc3nc(C4CCc5ccnn54)[nH]c3c2)N1 (some centres unmarked) [Example 16]
32 | 11 to 100 | O[C@H](c1ccccc1)[C@H]1CC[C@@H](Cc2ccc3nc(C4CCc5scnc54)[nH]c3c2)N1 (some centres unmarked) [Example 24]
33 | 11 to 100 | C[C@@H](c1nc2ccc(CC3CC[C@H]([C@H](O)c4ccccc4)N3)cc2[nH]1)n1cccnc1=O (stereo partly drawn) [Example 1, 1-{(1S)-[6-({(2S,5R)-5-[(R)-Hydroxy(phenyl)methyl]pyrrolidin-2-yl}methyl)-1H-benzimidazol-2-yl]ethyl}pyrimidin-2(1H)-one]

same assay, conditions: Table 2, read-out: Human β3 agonist functional activity

Row | EC50 [nM] | Structure (SMILES)
34 | 1000 to 3000 | Cc1nc2c(s1)CCC2c1nc2ccc(C[C@@H]3CC[C@H]([C@H](O)c4ccccc4)N3)cc2n1C (single isomer, unassigned) [Example 43]
35 | 1000 to 3000 | Cc1nc2c(s1)CCC2c1nc2ccc(C[C@@H]3CC[C@H]([C@H](O)c4ccccc4)N3)cc2n1C (single isomer, unassigned) [Example 44]

same assay, conditions: Table 3, read-out: Human β3 agonist functional activity

Row | EC50 [nM] | Structure (SMILES)
36 | 1000 to 3000 | Cc1nc2c(s1)CCC2c1nc2cc(C[C@@H]3CC[C@H]([C@H](O)c4ccccc4)N3)ccc2n1C (single isomer, unassigned) [Example 46]
37 | 101 to 1000 | Cc1nc2c(s1)CCC2c1nc2cc(C[C@@H]3CC[C@H]([C@H](O)c4ccccc4)N3)ccc2n1C (single isomer, unassigned) [Example 45]

target: T2, β3AR (Rattus norvegicus, UniProt P26255); assay: not given; conditions: rats, intravenous administration, cystometric studies; cited from earlier work
T2 construct: host or cells: live rats (in vivo, bladder)
T2 sequence (P26255 whole entry): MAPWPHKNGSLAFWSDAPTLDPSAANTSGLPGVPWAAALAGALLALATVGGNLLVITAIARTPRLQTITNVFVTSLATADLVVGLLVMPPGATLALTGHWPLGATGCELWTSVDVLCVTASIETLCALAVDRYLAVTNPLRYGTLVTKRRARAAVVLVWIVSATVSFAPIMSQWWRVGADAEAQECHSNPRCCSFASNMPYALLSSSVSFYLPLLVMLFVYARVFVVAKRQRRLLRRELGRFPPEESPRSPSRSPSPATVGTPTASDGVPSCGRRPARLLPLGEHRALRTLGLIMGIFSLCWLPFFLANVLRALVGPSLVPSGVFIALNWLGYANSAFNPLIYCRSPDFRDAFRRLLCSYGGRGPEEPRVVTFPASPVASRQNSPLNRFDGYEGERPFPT

Row | Structure (SMILES) | bladder capacity | micturition interval | residual urine volume
38 | C[C@H](Cc1ccc2c(c1)OC(C(=O)[O-])(C(=O)[O-])O2)NC[C@H](O)c1cccc(Cl)c1.[Na+].[Na+] [CL316243] | increases bladder capacity | prolongation of micturition interval | without increasing residual urine volume

same assay, conditions: rats, intravenous administration; cited from earlier work

Row | Structure (SMILES) | bladder pressure
39 | C[C@H](Cc1ccc2c(c1)OC(C(=O)[O-])(C(=O)[O-])O2)NC[C@H](O)c1cccc(Cl)c1.[Na+].[Na+] [CL316243] | reduces bladder pressure
